# Test results reported in US20260356810A1, “NOVEL PIPERAZINE-BASED SULFONAMIDES AND THEIR USE AS NEUROPROTECTIVE AND/OR NEURORESTORATIVE AGENTS” (GENECODE, priority 2022, published 2026).
# Like-named read-outs stand apart in the source and are kept apart here.
# Molecular target: T1, GFRα1-RET (Homo sapiens, UniProt P56159)
# T1 construct: expressed in transfected cells; host or cells: MG87 murine fibroblast
# Experiment: Luciferase assay: activation of Elk1 signaling in reporter-gene cells expressing GFRα1-RET (MG87 murine fibroblast stably transfected with PathDetect Elk-1, GFRα1, and RET)
# Format: cell-based
# Experimental: The purpose of this experiment was to evaluate the GFRα1-RET activity of the compounds 001-060 according to the invention.
# The compounds were tested for their activating activity of Elk1 signaling using the previously developed reporter-gene-based system in cells expressing GFRα1-RET (MG87 murine fibroblast stably transfected with PathDetect Elk-1, GFRα1, and RET) disclosed in Sidorova, Y. A. et al.: “Persephin signaling through GFRα1: The potential for the treatment of Parkinson's disease.” Molecular and Cellular Neuroscience, July 2010, Vol. 44, pp. 223-232. DOI: 10.1016/j.mcn.2010.03.009. For EC50 determination, a dose-response test was performed using 6 concentrations of each tested compound. Dose-response curves were fitted using the sigmoidal dose-response (variable slope) analysis in GraphPad Prism program (Graph Pad Inc) and EC50 of agonist/activator activity was calculated. Dose-response experiments were all performed in duplicate, two times independently.
# The compounds were tested for their activating activity of Elk1 signaling using the same materials and methods than for the compounds according to the invention (Example 2 herein, section “Materials and methods”).
# [1] = Table 4, MG87 murine fibroblasts with PathDetect Elk-1, GFRα1, RET, 6 concentrations, duplicate, two times independently, agonist/activator activity, read-out: Luciferase Assay EC50
# [2] = Table 6, comparison with comparative compounds, values for 001, 009, 010 reported from Table 4, MG87 GFRα1-RET cells, read-out: Luciferase Assay EC50
# [3] = text statement on Table 6 results, GFRα1-RET luciferase assay, read-out: EC50
# T1 sequence (P56159 25-429 limits assumed): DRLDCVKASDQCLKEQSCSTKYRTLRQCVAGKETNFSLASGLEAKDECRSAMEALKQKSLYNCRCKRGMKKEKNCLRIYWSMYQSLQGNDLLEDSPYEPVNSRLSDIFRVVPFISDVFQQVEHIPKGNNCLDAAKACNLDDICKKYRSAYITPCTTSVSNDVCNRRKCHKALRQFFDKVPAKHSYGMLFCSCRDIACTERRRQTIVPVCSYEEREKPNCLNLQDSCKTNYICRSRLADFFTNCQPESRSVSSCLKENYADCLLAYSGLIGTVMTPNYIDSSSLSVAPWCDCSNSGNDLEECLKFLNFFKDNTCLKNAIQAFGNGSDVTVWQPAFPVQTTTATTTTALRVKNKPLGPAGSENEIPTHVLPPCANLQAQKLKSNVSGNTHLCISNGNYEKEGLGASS
# T1 sequence (P07949 29-1114 partner): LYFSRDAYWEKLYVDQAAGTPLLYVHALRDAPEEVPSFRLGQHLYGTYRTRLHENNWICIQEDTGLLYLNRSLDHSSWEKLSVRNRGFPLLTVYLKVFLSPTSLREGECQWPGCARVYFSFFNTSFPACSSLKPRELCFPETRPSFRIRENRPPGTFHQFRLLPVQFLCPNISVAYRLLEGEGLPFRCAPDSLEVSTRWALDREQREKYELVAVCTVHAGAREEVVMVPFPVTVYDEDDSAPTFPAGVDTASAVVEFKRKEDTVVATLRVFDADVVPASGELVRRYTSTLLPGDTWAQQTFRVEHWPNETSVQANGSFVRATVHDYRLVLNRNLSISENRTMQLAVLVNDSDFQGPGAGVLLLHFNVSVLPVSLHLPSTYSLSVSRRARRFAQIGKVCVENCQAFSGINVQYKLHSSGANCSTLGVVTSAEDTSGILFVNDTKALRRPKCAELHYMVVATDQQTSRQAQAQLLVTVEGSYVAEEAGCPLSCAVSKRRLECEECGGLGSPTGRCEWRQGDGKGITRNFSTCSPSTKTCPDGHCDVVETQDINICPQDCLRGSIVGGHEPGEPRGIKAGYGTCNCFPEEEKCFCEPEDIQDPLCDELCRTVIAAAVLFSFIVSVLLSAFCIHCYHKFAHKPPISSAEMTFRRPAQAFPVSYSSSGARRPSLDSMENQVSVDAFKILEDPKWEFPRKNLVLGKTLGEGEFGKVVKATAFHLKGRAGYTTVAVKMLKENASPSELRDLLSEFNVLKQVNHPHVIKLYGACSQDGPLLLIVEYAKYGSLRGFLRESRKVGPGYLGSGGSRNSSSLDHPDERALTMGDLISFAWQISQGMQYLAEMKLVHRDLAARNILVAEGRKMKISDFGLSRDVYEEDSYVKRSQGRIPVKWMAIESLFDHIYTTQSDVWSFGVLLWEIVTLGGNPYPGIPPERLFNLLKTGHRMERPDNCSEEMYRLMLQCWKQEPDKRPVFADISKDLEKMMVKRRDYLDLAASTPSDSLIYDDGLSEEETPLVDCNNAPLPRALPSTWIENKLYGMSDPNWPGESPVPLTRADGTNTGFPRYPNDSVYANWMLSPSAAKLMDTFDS
SMILES,EC50 [1] [µM],EC50 [2] [µM],EC50 [3] [µM]
"CCN(CC)S(=O)(=O)c1ccc(OC)c(N2CCN(C(=O)c3ccc(F)cc3Cl)CC2)c1 [Compound 001, 3-[4-(2-chloro-4-fluoro-benzoyl)piperazin-1-yl]-N,N-diethyl-4-methoxy-benzenesulfonamide]",5 to 10,5 to 10,< 10
"CCN(CC)S(=O)(=O)c1ccc(OC)c(N2CCN(C(=O)c3cc(F)c(F)cc3Cl)CC2)c1 [Compound 002, 3-[4-(2-chloro-4,5-difluoro-benzoyl)piperazin-1-yl]-N,N-diethyl-4-methoxy-benzenesulfonamide]",5 to 10,,
"COc1ccc(S(=O)(=O)N2CCCC2)cc1N1CCN(C(=O)c2ccc(Cl)cc2Cl)CC1 [Compound 003, (2,4-dichlorophenyl)-[4-(2-methoxy-5-pyrrolidin-1-ylsulfonyl-phenyl)piperazin-1-yl]methanone]",10 to 50,,
"COc1ccc(S(=O)(=O)N2CCCC2)cc1N1CCN(C(=O)c2ccc(F)cc2Cl)CC1 [Compound 004, (2-chloro-4-fluoro-phenyl)-[4-(2-methoxy-5-pyrrolidin-1-ylsulfonyl-phenyl)piperazin-1-yl]methanone]",1 to 5,,
"CCCN(C)S(=O)(=O)c1ccc(OC)c(N2CCN(C(=O)c3cc(F)c(F)cc3Cl)CC2)c1 [Compound 005, 3-[4-(2-chloro-4,5-difluoro-benzoyl)piperazin-1-yl]-4-methoxy-N-methyl-N-propyl-benzenesulfonamide]",1 to 5,,
"CCCN(C)S(=O)(=O)c1ccc(OC)c(N2CCN(C(=O)c3ccc(F)cc3C(F)F)CC2)c1 [Compound 006, 3-[4-[2-(difluoromethyl)-4-fluoro-benzoyl]piperazin-1-yl]-4-methoxy-N-methyl-N-propyl-benzenesulfonamide]",1 to 5,,
"COc1ccc(S(=O)(=O)N2CCC(Cc3ccccc3)CC2)cc1N1CCN(C(=O)c2ccccc2C(F)F)CC1 [Compound 007, [4-[5-[(4-benzyl-1-piperidyl)sulfonyl]-2-methoxy-phenyl]piperazin-1-yl]-[2-(difluoromethyl)phenyl]methanone]",1 to 5,,

# More lines, now with the values ahead:
EC50 [1] [µM],EC50 [2] [µM],EC50 [3] [µM],SMILES
1 to 5,,,"COc1ccc(S(=O)(=O)N2CCN(CC(C)c3ccccc3)CC2)cc1N1CCN(C(=O)c2ccc(F)cc2Cl)CC1 (racemic) [Compound 053, (2-chloro-4-fluoro-phenyl)-[4-[2-methoxy-5-[4-[rac-(2R)-2-phenylpropyl]piperazin-1-yl]sulfonyl-phenyl]piperazin-1-yl]methanone]"
< 1,,,"COc1ccc(S(=O)(=O)N2CCN(CC(C)c3ccc(F)cc3)CC2)cc1N1CCN(C(=O)c2ccc(F)cc2Cl)CC1 (racemic) [Compound 054, (2-chloro-4-fluoro-phenyl)-[4-[2-methoxy-5-[4-[rac-(2R)-2-(4-fluorophenyl)propyl]piperazin-1-yl]sulfonyl-phenyl]piperazin-1-yl]methanone]"
5 to 10,,,"COc1ccc(S(=O)(=O)N2CCC(Cc3ccccc3)CC2)cc1N1CCN(C(=O)c2ncc(F)cc2Cl)CC1 [Compound 008, [4-[5-[(4-benzyl-1-piperidyl)sulfonyl]-2-methoxy-phenyl]piperazin-1-yl]-(3-chloro-5-fluoro-2-pyridyl)methanone]"
< 1,< 1,< 10,"COc1ccc(S(=O)(=O)N2CCC(Cc3ccccc3)CC2)cc1N1CCN(C(=O)c2cc(F)c(F)cc2Cl)CC1 [Compound 009, [4-[5-[(4-benzyl-1-piperidyl)sulfonyl]-2-methoxy-phenyl]piperazin-1-yl]-(2-chloro-4,5-difluoro-phenyl)methanone]"
1 to 5,1 to 5,< 10,"COc1ccc(S(=O)(=O)N2CCC(Cc3ccccc3)CC2)cc1N1CCN(C(=O)c2ccc(F)cc2C(F)F)CC1 [Compound 010, [4-[5-[(4-benzyl-1-piperidyl)sulfonyl]-2-methoxy-phenyl]piperazin-1-yl]-[2-(difluoromethyl)-4-fluoro-phenyl]methanone]"
